The results in this text go back to patent US11135237B2, “Lipophosphonoxins of second generation, and their use” (USTAV ORGANICKE CHEMIE A BIOCHEMIE AV CR, V.V.I., priority 2016, dated 2021).

Assay type in all cases: cell-based
Assay [1] deals with S. haemolyticus 16568. Briefly: MIC, microdilution method, resistant strains. The conditions noted are these: Staphylococcus haemolyticus, fluoroquinolone-resistant strain, clinical isolate. On the procedure: (§1) Antibacterial activity was measured using a standard microdilution method, showing the minimum inhibitory concentration (MIC) of the test sample which results in inhibition of bacterial growth. Disposable microtiter plates were used for the tests. Samples are dissolved in the brain-heart infusion broth (HiMedia Laboraties Pvt. Ltd., Czech Republic), and Mueller Hinton broth (HiMedia Laboraties, see above) at a final concentration ranging from 200 μg/ml to 1.5625 μg/ml. Plates were inoculated with a standard amount of test bacteria—inoculum density in the hole corresponds to 10^5-6 CFU/ml (colony forming units/ml). MIC values are read after 24/48 hours of incubation at 37° C. as the minimum inhibitory concentration of the test substance at which the growth of bacteria is inhibited. Minimal bactericidal concentration (MBC) is defined as the minimum concentration of the sample needed to achieve irreversible inhibition, therefore killing the bacteria after a defined time of incubation. The MBC was determined by inoculation method. 10 μl from the wells in a microplate with a defined concentration of test substance is taken with an applicator, and inoculated onto the surface of blood agar (Trios, Czech Republic) and Sabouraud agar (Trios, CR). The MBC was determined as the lowest concentration that inhibited visible growth of the bacteria used.
(In general: Broth dilution looks for growth in wells or tubes with falling amounts of substance.)

The subject of assay [2] is E. coli 16702. The assay is described as follows: MIC, microdilution method, resistant strains. Particulars: Escherichia coli, resistant strain, clinical isolate. As for the experimental part:
as §1

Assay [3] deals with P. aeruginosa 16575. Briefly: MIC, microdilution method, resistant strains. The conditions noted are these: Pseudomonas aeruginosa, resistant strain, clinical isolate. On the procedure:
as §1

Assay [4] relates to S. epidermidis 8700B. Briefly: MIC, microdilution method, resistant strains. The conditions noted are these: Staphylococcus epidermidis, methicilin-resistant strain, clinical isolate. On the procedure: as §1
In assay [5] the test system is S. aureus MRSA 4591. Briefly: MIC, microdilution method, resistant strains. Particulars: Staphylococcus aureus, methicillin-resistant strain, clinical isolate. On the procedure:
as §1

Assay [6] relates to E. faecium VanA 419ana. Briefly: MIC, microdilution method, resistant strains. The conditions noted are these: Enterococcus faecium, VANA419ANA; vancomycin-resistant strain, clinical isolate. On the procedure: as §1
For assay [7], the system named is Streptococcus agalactiae. Briefly: MIC, microdilution method, reference strains. The conditions noted are these: read after 24/48 hours of incubation at 37° C. On the procedure: as §1, with “bacteria-inoculum” for “bacteria—inoculum”, “used. Standard reference bacterial strains (Escherichia coli CCM 3954, Pseudomonas aeruginosa CCM 3955, Enterococcus faecalis CCM 4224, Staphylococcus aureus CCM 4223) were obtained from the Czech Collection of Microorganisms (CCM) at […] University in Brno. Streptococcus agalactiae, Bacillus subtilis were obtained from the University Hospital Olomouc. The tested microorganisms were maintained in cryobanks (ITEST plus, Czech Republic) at -80° C.” for “used.”

In assay [8] the test system is Bacillus subtilis. The assay is described as follows: MIC, microdilution method, reference strains. The conditions noted are these: read after 24/48 hours of incubation at 37° C. As for the experimental part:
as §1, with “bacteria-inoculum” for “bacteria—inoculum”, “used. Standard reference bacterial strains (Escherichia coli CCM 3954, Pseudomonas aeruginosa CCM 3955, Enterococcus faecalis CCM 4224, Staphylococcus aureus CCM 4223) were obtained from the Czech Collection of Microorganisms (CCM) at […] University in Brno. Streptococcus agalactiae, Bacillus subtilis were obtained from the University Hospital Olomouc. The tested microorganisms were maintained in cryobanks (ITEST plus, Czech Republic) at -80° C.” for “used.”

The subject of assay [9] is Enterococcus faecalis CCM 4224. The assay is described as follows: MIC, microdilution method, reference strains. The conditions noted are these: CCM4224, read after 24/48 hours of incubation at 37° C. On the procedure: as §1, with “bacteria-inoculum” for “bacteria—inoculum”, “used. Standard reference bacterial strains (Escherichia coli CCM 3954, Pseudomonas aeruginosa CCM 3955, Enterococcus faecalis CCM 4224, Staphylococcus aureus CCM 4223) were obtained from the Czech Collection of Microorganisms (CCM) at […] University in Brno. Streptococcus agalactiae, Bacillus subtilis were obtained from the University Hospital Olomouc. The tested microorganisms were maintained in cryobanks (ITEST plus, Czech Republic) at -80° C.” for “used.”

For assay [10], the system named is Staphylococcus aureus CCM 4223. The assay is described as follows: MIC, microdilution method, reference strains. Particulars: CCM4223, read after 24/48 hours of incubation at 37° C. On the procedure: as §1, with “bacteria-inoculum” for “bacteria—inoculum”, “used. Standard reference bacterial strains (Escherichia coli CCM 3954, Pseudomonas aeruginosa CCM 3955, Enterococcus faecalis CCM 4224, Staphylococcus aureus CCM 4223) were obtained from the Czech Collection of Microorganisms (CCM) at […] University in Brno. Streptococcus agalactiae, Bacillus subtilis were obtained from the University Hospital Olomouc. The tested microorganisms were maintained in cryobanks (ITEST plus, Czech Republic) at -80° C.” for “used.”

For assay [11], the system named is Escherichia coli CCM 3954. Briefly: MIC, microdilution method, reference strains. Particulars: CCM3954, read after 24/48 hours of incubation at 37° C. As for the experimental part:
as §1, with “bacteria-inoculum” for “bacteria—inoculum”, “used. Standard reference bacterial strains (Escherichia coli CCM 3954, Pseudomonas aeruginosa CCM 3955, Enterococcus faecalis CCM 4224, Staphylococcus aureus CCM 4223) were obtained from the Czech Collection of Microorganisms (CCM) at […] University in Brno. Streptococcus agalactiae, Bacillus subtilis were obtained from the University Hospital Olomouc. The tested microorganisms were maintained in cryobanks (ITEST plus, Czech Republic) at -80° C.” for “used.”

The test system of assay [12] is Pseudomonas aeruginosa CCM 3955. Briefly: MIC, microdilution method, reference strains. The conditions noted are these: CCM3955, read after 24/48 hours of incubation at 37° C. On the procedure:
as §1, with “bacteria-inoculum” for “bacteria—inoculum”, “used. Standard reference bacterial strains (Escherichia coli CCM 3954, Pseudomonas aeruginosa CCM 3955, Enterococcus faecalis CCM 4224, Staphylococcus aureus CCM 4223) were obtained from the Czech Collection of Microorganisms (CCM) at […] University in Brno. Streptococcus agalactiae, Bacillus subtilis were obtained from the University Hospital Olomouc. The tested microorganisms were maintained in cryobanks (ITEST plus, Czech Republic) at -80° C.” for “used.”

Assay [13] deals with Stenotrophomonas matophilia S2-23. The assay is described as follows: MIC, microdilution method. Particulars: S223, read after 24/48 hours of incubation at 37° C. On the procedure: as §1
For assay [14], the system named is Burkholderia multivorans ATCC BAA-247. Briefly: MIC, microdilution method. The conditions noted are these: ATCCBAA247, read after 24/48 hours of incubation at 37° C. On the procedure:
as §1

Assay [15] concerns Acinetobacter baumanii A3-08. Briefly: MIC, microdilution method. Particulars: Acinetobacter baumannii, A308; read after 24/48 hours of incubation at 37° C. On the procedure: as §1
Assay [16] relates to Salmonella Enteritidis S2-25. The assay is described as follows: MIC, microdilution method. The conditions noted are these: Salmonella enterica, read after 24/48 hours of incubation at 37° C. On the procedure:
as §1

In brackets after ≈: the same amount, converted by molar mass.

Turning to `CCCCCCCCCCCCCCCOP(=O)(CCN(CCN)CCN)OC[C@H]1O[C@@H](n2ccc(=O)[nH]c2=O)C(O)C1O` (some centres unmarked) [Example 6, Pentadecyl-uridine-5′-yl-2-N-bis(3-aminoethyl)-2-aminoethyl phosphonate], the minimum inhibitory concentration (MIC) in [1] was 1.56 µg/mL (≈ 2.41 µM); in [2] it was 1.56 µg/mL (≈ 2.41 µM); in [3], 1.56 µg/mL (≈ 2.41 µM); in assay [4], 1.56 µg/mL (≈ 2.41 µM); in assay [5] it was 6.25 µg/mL (≈ 9.65 µM); in assay [6] it was 100 µg/mL (≈ 154 µM). The MIC turned out to be 3.12 µg/mL (≈ 4.82 µM) in assay [7]; 0.78 µg/mL (≈ 1.2 µM) in assay [8]; 12.5 µg/mL (≈ 19.3 µM) in assay [9]; 6.25 µg/mL (≈ 9.65 µM) in [10]; 1.56 µg/mL (≈ 2.41 µM) in assay [11]; 1.56 µg/mL (≈ 2.41 µM) in assay [12].

Turning to `CCCCCCCCCCCCCCOP(=O)(CCN(CCN)CCN)OC[C@H]1O[C@@H](n2ccc(=O)[nH]c2=O)C(O)C1O` (some centres unmarked) [Example 7, Tetradecyl-uridine-5′-yl-2-N-bis(3-aminoethyl)-2-aminoethyl phosphonate], the minimal inhibitory concentration (MIC) is 3.12 µg/mL (≈ 4.93 µM) in [1]; 6.25 µg/mL (≈ 9.86 µM) in assay [2]; 6.25 µg/mL (≈ 9.86 µM) in assay [3]; 3.12 µg/mL (≈ 4.93 µM) in assay [4]; 12.5 µg/mL (≈ 19.7 µM) in [5]; 100 µg/mL (≈ 158 µM) in assay [6]. For the same compound, the minimal inhibitory concentration (MIC) in assay [7] came to 6.25 µg/mL (≈ 9.86 µM); in [8] it was 6.25 µg/mL (≈ 9.86 µM); in assay [9], 100 µg/mL (≈ 158 µM); in assay [10], 25 µg/mL (≈ 39.4 µM); in assay [11] it was 12.5 µg/mL (≈ 19.7 µM); in [12], 3.12 µg/mL (≈ 4.93 µM). Further, the MIC in assay [13] was found to be 6.25 µg/mL (≈ 9.86 µM); in [14], 12.5 µg/mL (≈ 19.7 µM); in assay [15] it was 25 µg/mL (≈ 39.4 µM); in assay [16] it was 12.5 µg/mL (≈ 19.7 µM).

With `CCCCCCCCCCCCCCCOP(=O)(CCN(CCCNC(=N)N)CCCNC(=N)N)OC[C@H]1O[C@@H](n2ccc(=O)[nH]c2=O)C(O)C1O` (some centres unmarked) [Example 8], the MIC in assay [1] was 1.56 µg/mL (≈ 2.05 µM); in assay [2], 0.78 µg/mL (≈ 1.03 µM); in [3] it was 1.56 µg/mL (≈ 2.05 µM); in assay [4], 1.56 µg/mL (≈ 2.05 µM); in assay [5], 3.12 µg/mL (≈ 4.11 µM); in assay [6], 50 µg/mL (≈ 65.8 µM). In addition, the minimum inhibitory concentration (MIC) was 1.56 µg/mL (≈ 2.05 µM) in [7]; 0.39 µg/mL (≈ 0.513 µM) in assay [8]; 25 µg/mL (≈ 32.9 µM) in assay [9]; 3.12 µg/mL (≈ 4.11 µM) in assay [10]; 0.78 µg/mL (≈ 1.03 µM) in [11]; 0.78 µg/mL (≈ 1.03 µM) in [12]. The MIC in assay [13] came to 3.12 µg/mL (≈ 4.11 µM); in assay [14] it was 100 µg/mL (≈ 132 µM); in [15] it was 6.25 µg/mL (≈ 8.22 µM); in [16] it was 1.56 µg/mL (≈ 2.05 µM).

As for `CCCCCCCCCCCCCCOP(=O)(CCN1CCC(N)C1)OC[C@H]1O[C@@H](n2ccc(=O)[nH]c2=O)C(O)C1O` (some centres unmarked) [Example 10, Tetradecyl-uridine-5′-yl-(3-aminopyrrolidin-1-N-yl) ethyl phosphonate], the MIC in [1] was found to be 6.25 µg/mL (≈ 10.1 µM); in assay [2] it was 3.12 µg/mL (≈ 5.07 µM); in [3], 3.12 µg/mL (≈ 5.07 µM); in assay [4], 3.12 µg/mL (≈ 5.07 µM); in assay [5], 25 µg/mL (≈ 40.5 µM); in assay [6], 50 µg/mL (≈ 81.1 µM). In addition, the minimum inhibitory concentration (MIC) in [7] came out at 3.12 µg/mL (≈ 5.07 µM); in assay [8], 1.56 µg/mL (≈ 2.53 µM); in assay [9], 6.25 µg/mL (≈ 10.1 µM); in [10] it was 12.5 µg/mL (≈ 20.3 µM); in [11], 3.12 µg/mL (≈ 5.07 µM); in [12], 3.12 µg/mL (≈ 5.07 µM).

The MIC is the smallest concentration in the dilution series that meets the test's criterion for growth inhibition.
